# Results reported in patent US8093378B2, “Crystallization method for intermediates of carbapenem antibiotics” (Kaneka Corporation, priority 2006, dated 2012).
# What was measured:
# [1] = Storage stability of the crystals at 60° C. (remaining activity by HPLC); assay type: physicochemical
# Method: About 500 mg of Compound (1) in a crystalline form obtained in each of Example 1 and Comparative example 1 was weighed out in a glass bottle, and the bottle was tightly sealed. Then, the bottle was left in a constant-temperature room at 60° C. for 8 days.
# [2] = stored at 40° C. for 20 days, crystalline form; cited from earlier work
# [3] = Bulk density of crystals passing a 500 μm sieve (tapped); assay type: physicochemical; settings: crystals with particle size 500 μm or less; weight of crystals/volume of crystals after tapping
# Method: Arbitrarily, 3.0 g of Compound (1) in a crystalline form obtained in each of Example 1, Comparative example 1, Example 2 and Comparative example 2 was taken out, and was passed through a test sieve with a diameter of 8 cm and a mesh size of 500 μm in accordance with the Japanese Industrial Standard (JIS Z 8801), and the bulk density of the crystals passing through the sieve was measured. […] The bulk density was calculated by using “weight of crystals”/“volume of crystals” as a calculation method.
# [4] = Particle size distribution of crystals by sieving (JIS Z 8801 / JIS Z 8901); assay type: physicochemical; settings: for ratio of weight of crystals, particle size <177 μm: mesh size <177 μm; for ratio of weight of crystals, particle size <350, ≧177 μm: mesh size <350, ≧177 μm; for ratio of weight of crystals, particle size ≧350 μm: mesh size ≧350 μm
# Text: Arbitrarily, 3.0 g of Compound (1) in a crystalline form obtained in each of Example 2, Comparative example 2, Example 3 and Comparative example 3 was taken out. Test sieves with a mesh size in accordance with the Japanese Industrial Standard (JIS Z 8801), having a mesh size of 500 μm, 420 μm, 350 μm, 250 μm, 177 μm, 149 μm, 125 μm, 74 μm or 44 μm and an inner diameter of 8 cm, were used, and were shaken by hand in accordance with the measurement procedure of the standard sieving method specified in JIS Z 8901. The results obtained by comparing the particle size distributions between the “crystal of Example 2” and the “crystal of Comparative example 2”, and between the “crystal of Example 3” and the “crystal of Comparative example 3” are shown in Table 3.
# [5] = Day 1 (set as 100%), crystal in sealed glass bottle at 60° C.
# [6] = Day 4, crystal in sealed glass bottle at 60° C.
# [7] = Day 6, crystal in sealed glass bottle at 60° C.
# [8] = Day 8, crystal in sealed glass bottle at 60° C.
Compound,"decomposition ([1]; storage at 60° C., 8 days, crystal obtained by the same method as Patent document 4) [%]",decomposition on storage [2],"remaining activity [1, 5] [%]","remaining activity [1, 6] [%]","remaining activity [1, 7] [%]","remaining activity [1, 8] [%]",Bulk Density [3],"ratio of weight of crystals, particle size <177 μm [4] [%]","ratio of weight of crystals, particle size <350, ≧177 μm [4] [%]","ratio of weight of crystals, particle size ≧350 μm [4] [%]"
"C[C@@H](O)[C@H]1C(=O)N2C(C(=O)OCc3ccc([N+](=O)[O-])cc3)=C(OP(=O)(Oc3ccccc3)Oc3ccccc3)[C@H](C)[C@H]12 [Compound (1), p-nitrobenzyl (4R,5R,6S)-1-aza-3-diphenyloxyphosphoryloxy-6-[(1R)-1-hydroxyethyl]-4-methyl-7-oxobicyclo[3.2.0]hept-2-en-2-carboxylate]",20,not decomposed,,,,,,,,
"C[C@@H](O)[C@H]1C(=O)N2C(C(=O)OCc3ccc([N+](=O)[O-])cc3)=C(OP(=O)(Oc3ccccc3)Oc3ccccc3)[C@H](C)[C@H]12 [Comparative Example 1, p-nitrobenzyl (4R,5R,6S)-1-aza-3-diphenyloxyphosphoryloxy-6-[(1R)-1-hydroxyethyl]-4-methyl-7-oxobicyclo[3.2.0]hept-2-en-2-carboxylate, reference compound]",,,100,96,87,80,0.37,,,
"C[C@@H](O)[C@H]1C(=O)N2C(C(=O)OCc3ccc([N+](=O)[O-])cc3)=C(OP(=O)(Oc3ccccc3)Oc3ccccc3)[C@H](C)[C@H]12 [Comparative example 3, p-nitrobenzyl (4R,5R,6S)-1-aza-3-diphenyloxyphosphoryloxy-6-[(1R)-1-hydroxyethyl]-4-methyl-7-oxobicyclo[3.2.0]hept-2-en-2-carboxylate, reference compound]",,,,,,,,25,45,30
"C[C@@H](O)[C@H]1C(=O)N2C(C(=O)OCc3ccc([N+](=O)[O-])cc3)=C(OP(=O)(Oc3ccccc3)Oc3ccccc3)[C@H](C)[C@H]12 [Comparative example 2, p-nitrobenzyl (4R,5R,6S)-1-aza-3-diphenyloxyphosphoryloxy-6-[(1R)-1-hydroxyethyl]-4-methyl-7-oxobicyclo[3.2.0]hept-2-en-2-carboxylate, reference compound]",,,,,,,0.36,34,47,19
"C[C@@H](O)[C@H]1C(=O)N2C(C(=O)OCc3ccc([N+](=O)[O-])cc3)=C(OP(=O)(Oc3ccccc3)Oc3ccccc3)[C@H](C)[C@H]12 [Example 3, p-nitrobenzyl (4R,5R,6S)-1-aza-3-diphenyloxyphosphoryloxy-6-[(1R)-1-hydroxyethyl]-4-methyl-7-oxobicyclo[3.2.0]hept-2-en-2-carboxylate]",,,,,,,,18,36,46
"C[C@@H](O)[C@H]1C(=O)N2C(C(=O)OCc3ccc([N+](=O)[O-])cc3)=C(OP(=O)(Oc3ccccc3)Oc3ccccc3)[C@H](C)[C@H]12 [Example 2, p-nitrobenzyl (4R,5R,6S)-1-aza-3-diphenyloxyphosphoryloxy-6-[(1R)-1-hydroxyethyl]-4-methyl-7-oxobicyclo[3.2.0]hept-2-en-2-carboxylate]",,,,,,,0.40,10,41,49
"C[C@@H](O)[C@H]1C(=O)N2C(C(=O)OCc3ccc([N+](=O)[O-])cc3)=C(OP(=O)(Oc3ccccc3)Oc3ccccc3)[C@H](C)[C@H]12 [Example 1, p-nitrobenzyl (4R,5R,6S)-1-aza-3-diphenyloxyphosphoryloxy-6-[(1R)-1-hydroxyethyl]-4-methyl-7-oxobicyclo[3.2.0]hept-2-en-2-carboxylate]",,,100,97,92,88,0.43,,,
